Here are results for 35 compounds from patent US9802960B2 (MILLENNIUM PHARMACEUTICALS, INC., priority 2014, dated 2017).

Human VPS34, sequence (Q8NEB9 whole entry): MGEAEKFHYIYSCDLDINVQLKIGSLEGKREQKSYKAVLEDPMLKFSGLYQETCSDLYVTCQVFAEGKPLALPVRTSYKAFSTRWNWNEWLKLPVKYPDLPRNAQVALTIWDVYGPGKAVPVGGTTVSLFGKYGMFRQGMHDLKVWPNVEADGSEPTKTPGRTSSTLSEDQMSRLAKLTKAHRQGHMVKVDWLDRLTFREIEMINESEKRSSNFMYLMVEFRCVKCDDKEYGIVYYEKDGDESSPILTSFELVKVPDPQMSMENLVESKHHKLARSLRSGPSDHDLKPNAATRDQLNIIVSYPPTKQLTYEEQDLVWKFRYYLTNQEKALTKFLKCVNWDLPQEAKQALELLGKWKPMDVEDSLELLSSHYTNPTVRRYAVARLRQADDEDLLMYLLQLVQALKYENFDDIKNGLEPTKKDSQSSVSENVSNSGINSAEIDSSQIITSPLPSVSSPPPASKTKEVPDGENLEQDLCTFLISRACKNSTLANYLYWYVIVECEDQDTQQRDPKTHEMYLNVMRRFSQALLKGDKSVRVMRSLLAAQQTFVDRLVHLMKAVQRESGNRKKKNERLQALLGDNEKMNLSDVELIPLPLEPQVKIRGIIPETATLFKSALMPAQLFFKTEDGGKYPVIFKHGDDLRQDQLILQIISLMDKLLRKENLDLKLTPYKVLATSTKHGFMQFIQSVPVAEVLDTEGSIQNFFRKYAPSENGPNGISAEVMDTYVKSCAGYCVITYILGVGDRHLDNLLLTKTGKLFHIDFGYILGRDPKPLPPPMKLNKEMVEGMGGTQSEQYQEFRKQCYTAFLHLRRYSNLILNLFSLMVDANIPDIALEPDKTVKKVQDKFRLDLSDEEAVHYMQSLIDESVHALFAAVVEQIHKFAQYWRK

One experiment addresses Human VPS34 (Homo sapiens (Human), UniProt Q8NEB9). Briefly: Human VPS34 enzyme assay (Adapta TR-FRET). The settings on record: compound concentration 1.11 μM. The experiment is classed as biochemical.
Take `Cc1nc(Nc2cc(-c3cnc(Cl)c(NS(=O)(=O)c4ccc(F)cc4F)c3C)ccn2)ccc1C#N` [Compound I-238, N-{6-chloro-2′-[(5-cyano-6-methylpyridin-2-yl)amino]-4-methyl-3,4′-bipyridin-5-yl}-2,4-difluorobenzenesulfonamide]: the “Percent Inhibition” value is listed as 93%.

Consider `CCc1c(-c2ccnc(Nc3ccnc(C)n3)c2)cnc(Cl)c1NS(=O)(=O)c1ccc(F)cc1F` [Compound I-259, N-{6-chloro-4-ethyl-2′-[(2-methylpyrimidin-4-yl)amino]-3,4′-bipyridin-5-yl}-2,4-difluorobenzene sulfonamide], for which the “Percent Inhibition” value came out at 79%.

Staying with this experiment, now noted: compound concentration 1.11 μM; read-out: Percent Inhibition.
With `CC(=O)Nc1cc(-c2cnc(Cl)c(NS(=O)(=O)c3cc(F)ccc3F)c2C)ccn1` [Compound I-227, N-(6-chloro-5-{[(2,5-difluorophenyl)sulfonyl]amino}-4-methyl-3,4′-bipyridin-2′-yl)acetamide], the inhibition at 1.11 µM was over 99%.

On to `Cc1ncc(-c2ccnc(Nc3ccc(C#N)cn3)c2)cc1NS(=O)(=O)c1ccc(F)cc1F` [Compound I-228, N-{2′-[(5-cyanopyridin-2-yl)amino]-6-methyl-3,4′-bipyridin-5-yl}-2,4-difluorobenzene sulfonamide], for which the inhibition at 1.11 µM is over 99%.

In the case of `Cc1nc(Nc2cc(-c3cnc(C)c(NS(=O)(=O)N(C)C)c3)ccn2)ccc1C#N` [Compound I-229, N-{2′-[(5-cyano-6-methylpyridin-2-yl)amino]-6-methyl-3,4′-bipyridin-5-yl}-N,N-dimethylsulfuric diamide], the inhibition at 1.11 µM is over 99%.

`COc1nccc(Nc2cc(-c3cnc(N)c(C(=O)N(C)C45CC(C4)C5)c3)ccn2)n1` [Compound I-230, 6-amino-N-(bicyclo[1.1.1]pent-1-yl)-2′-((2-methoxypyrimidin-4-yl)amino)-N-methyl-[3,4′-bipyridine]-5-carboxamide]: the inhibition at 1.11 µM was 97%.

In the case of `Nc1cncc(-c2ccnc(N)c2)c1` [Compound I-231, 3,4′-bipyridine-2′,5-diamine], the inhibition at 1.11 µM stood at 26%.

Consider `Cc1nccc(Nc2cc(-c3cnc(Cl)c(C(=O)N4CCC4)c3)ccn2)n1` [Compound I-232, azetidin-1-yl{6-chloro-2′-[(2-methylpyrimidin-4-yl)amino]-3,4′-bipyridin-5-yl}methanone], for which the inhibition at 1.11 µM amounted to 81%.

In the case of `Cc1ncc(-c2ccnc(Nc3nc4ccccc4o3)c2)cc1NS(=O)(=O)c1ccc(F)cc1F` [Compound I-233, N-[2'-(1,3-benzoxazol-2-ylamino)-6-methyl-3,4′-bipyridin-5-yl]-2,4-difluorobenzene sulfonamide], the inhibition at 1.11 µM amounted to 96%.

Regarding `Cc1nccc(Nc2cc(-c3cncc(C(=O)N(C)C45CC(C4)C5)c3)ccn2)n1` [Compound I-234, N-(bicyclo[1.1.1]pent-1-yl)-N-methyl-2′-[(2-methylpyrimidin-4-yl)amino]-3,4′-bipyridine-5-carboxamide], the inhibition at 1.11 µM is 90%.

For `Cc1ccc2ccc(Nc3cc(-c4cnc(C)c(NS(=O)(=O)c5ccc(F)cc5F)c4)ccn3)nc2n1` [Compound I-235, 2,4-difluoro-N-{6-methyl-2′-[(7-methyl-1,8-naphthyridin-2-yl)amino]-3,4′-bipyridin-5-yl}benzenesulfonamide], the inhibition at 1.11 µM is 92%.

With `CC(=O)Nc1cc(-c2cnc(Cl)c(NS(=O)(=O)N(C)C)c2C)ccn1` [Compound I-236, N-{6-chloro-5-[(dimethylsulfamoyl)amino]-4-methyl-3,4′-bipyridin-2′-yl}acetamide], the inhibition at 1.11 µM is 98%.

On to `Cc1ncc(-c2ccnc(Nc3ccnc(C(F)(F)F)n3)c2)cc1NS(=O)(=O)c1ccc(F)cc1F` [Compound I-237, 2,4-difluoro-N-(6-methyl-2′-{[2-(trifluoromethyl)pyrimidin-4-yl]amino}-3,4′-bipyridin-5-yl)benzenesulfonamide], for which the inhibition at 1.11 µM was found to be 91%.

Take `Cc1ncc(-c2ccnc(Nc3ccncn3)c2)cc1NS(=O)(=O)c1ccc(F)cc1F` [Compound I-239]: the inhibition at 1.11 µM was over 99%.

As to `CC(=O)Nc1cc(-c2cnc(Cl)c(NS(=O)(=O)c3ccccc3Cl)c2C)ccn1` [Compound I-240, N-(6-chloro-5-{[(2-chlorophenyl)sulfonyl]amino}-4-methyl-3,4′-bipyridin-2′-yl)acetamide], the inhibition at 1.11 µM was over 99%.

Take `COC(=O)Nc1cc(-c2cnc(C)c(NS(=O)(=O)N(C)C)c2)ccn1` [Compound I-241, methyl {5-[(dimethylsulfamoyl)amino]-6-methyl-3,4′-bipyridin-2′-yl}carbamate]: the inhibition at 1.11 µM turned out to be 96%.

For the compound `Cc1nccc(Nc2cc(-c3cnc(Cl)c(S(=O)(=O)NC45CC(C4)C5)c3)ccn2)n1` [Compound I-242, N-(bicyclo[1.1.1]pent-1-yl)-6-chloro-2′-[(2-methylpyrimidin-4-yl)amino]-3,4′-bipyridine-5-sulfonamide], the inhibition at 1.11 µM is 88%.

Take `CC(=O)Nc1cc(-c2cnc(Cl)c(NS(=O)(=O)c3ccc(Cl)cc3Cl)c2C)ccn1` [Compound I-243, N-(6-chloro-5-{[(2,4-dichlorophenyl)sulfonyl]amino}-4-methyl-3,4′-bipyridin-2′-yl)acetamide]: the inhibition at 1.11 µM is 85%.

In the case of `Cc1ncc(-c2ccnc(NC(=O)C3CC3(F)F)c2)cc1NS(=O)(=O)N(C)C` (centres unmarked) [Compound I-244, N-{5-[(dimethylsulfamoyl)amino]-6-methyl-3,4′-bipyridin-2′-yl}-2,2-difluorocyclopropanecarboxamide], the inhibition at 1.11 µM came out at 82%.

In the case of `COc1nccc(Nc2cc(-c3cncc(C(=O)N(C)C45CC(C4)C5)c3)ccn2)n1` [Compound I-245, N-(bicyclo[1.1.1]pent-1-yl)-2′-[(2-methoxypyrimidin-4-yl)amino]-N-methyl-3,4′-bipyridine-5-carboxamide], the inhibition at 1.11 µM is over 99%.

In the case of `Cc1ncc(-c2ccnc(Nc3ccnc(C4CC4)n3)c2)cc1C(=O)N1CCC1` [Compound I-246, azetidin-1-yl{2′-[(2-cyclopropylpyrimidin-4-yl)amino]-6-methyl-3,4′-bipyridin-5-yl}methanone], the inhibition at 1.11 µM turned out to be 91%.

In the case of `CC(=O)Nc1cc(-c2cnc(C)c(NS(=O)(=O)c3ccc(F)cc3F)c2C)ccn1` [Compound I-247, N-(5-{[(2,4-difluorophenyl)sulfonyl]amino}-4,6-dimethyl-3,4′-bipyridin-2′-yl)acetamide], the inhibition at 1.11 µM was over 99%.

In the case of `COc1ncc(-c2ccnc(NC(C)=O)c2)c(C)c1NS(=O)(=O)c1ccc(F)cc1F` [Compound I-248, N-(5-{[(2,4-difluorophenyl)sulfonyl]amino}-6-methoxy-4-methyl-3,4′-bipyridin-2′-yl)acetamide], the inhibition at 1.11 µM was over 99%.

As for `Cc1nccc(Nc2cc(-c3cnc(C)c(NC(=O)c4ccc(F)cc4F)c3)ccn2)n1` [Compound I-249, 2,4-difluoro-N-{6-methyl-2′-[(2-methylpyrimidin-4-yl)amino]-3,4′-bipyridin-5-yl}benzamide], the inhibition at 1.11 µM turned out to be 85%.

In the case of `CC(=O)Nc1cc(-c2cnc(Cl)c(NS(=O)(=O)c3ccc(F)cc3F)c2C)c(C)cn1` [Compound I-250, N-(6-chloro-5-{[(2,4-difluorophenyl)sulfonyl]amino}-4,5′-dimethyl-3,4′-bipyridin-2′-yl)acetamide], the inhibition at 1.11 µM worked out at 99%.

`CC(=O)Nc1cc(-c2cnc(Cl)c(NS(=O)(=O)c3ccccc3F)c2C)ccn1` [Compound I-251, N-(6-chloro-5-{[(2-fluorophenyl)sulfonyl]amino}-4-methyl-3,4′-bipyridin-2′-yl)acetamide]: the inhibition at 1.11 µM amounted to 97%.

Consider `COc1ncc(-c2ccnc(Nc3ccnc(C)n3)c2)cc1C(=O)N(C)c1ccc(F)cc1F` [Compound I-252, N-(2,4-difluorophenyl)-6-methoxy-N-methyl-2′-[(2-methylpyrimidin-4-yl)amino]-3,4′-bipyridine-5-carboxamide], for which the inhibition at 1.11 µM is over 99%.

Consider `Cc1nccc(Nc2cc(-c3cnc(C)c(C(=O)O)c3)ccn2)n1` [Compound I-253, 6-methyl-2′-((2-methylpyrimidin-4-yl)amino)-[3,4′-bipyridine]-5-carboxylic acid], for which the inhibition at 1.11 µM stood at 96%.

As to `Cc1c(-c2ccnc(NC(=O)C3CC3(F)F)c2)cnc(Cl)c1NS(=O)(=O)c1ccc(F)cc1F` (centres unmarked) [Compound I-254, N-(6-chloro-5-{[(2,4-difluorophenyl)sulfonyl]amino}-4-methyl-3,4′-bipyridin-2′-yl)-2,2-difluorocyclopropanecarboxamide], the inhibition at 1.11 µM was determined as 77%.

With `COC(=O)Nc1cc(-c2cnc(Cl)c(NS(=O)(=O)c3ccc(F)cc3F)c2C)ccn1` [Compound I-255, methyl (6-chloro-5-{[(2,4-difluorophenyl)sulfonyl]amino}-4-methyl-3,4′-bipyridin-2′-yl)carbamate], the inhibition at 1.11 µM came out at 95%.

Take `CNc1c(Cl)ncc(-c2ccnc(Nc3ccnc(C)n3)c2)c1C` [Compound I-256, 6-chloro-N~5~,4-dimethyl-N~2~′-(2-methylpyrimidin-4-yl)-3,4′-bipyridine-2′,5-diamine]: the inhibition at 1.11 µM stood at 94%.

On to `CC(=O)Nc1cc(-c2cnc(C)c(NS(=O)(=O)N3CCC3)c2)ccn1` [Compound I-257, N-{5-[(azetidin-1-ylsulfonyl)amino]-6-methyl-3,4′-bipyridin-2′-yl}acetamide], for which the inhibition at 1.11 µM was over 99%.

Consider `CC(=O)Nc1cc(-c2cc(NS(=O)(=O)c3ccc(F)cc3F)c(C)[n+]([O-])c2)ccn1` [Compound I-258, N-[4-(5-{[(2,4-difluorophenyl)sulfonyl]amino}-6-methyl-1-oxidopyridin-3-yl)pyridin-2-yl]acetamide], for which the inhibition at 1.11 µM amounted to 88%.

For the compound `CC(=O)Nc1cc(-c2cnc(C)c(NS(=O)(=O)N(C)C)c2C)ccn1` [Compound I-260, N-{5-[(dimethylsulfamoyl)amino]-4,6-dimethyl-3,4′-bipyridin-2′-yl}acetamide], the inhibition at 1.11 µM stood at 91%.

`Cc1nccc(Nc2cc(-c3cnc(C)c(C(=O)N4CCCCC4)c3)ccn2)n1` [Compound I-262, {6-methyl-2′-[(2-methylpyrimidin-4-yl)amino]-3,4′-bipyridin-5-yl}(piperidin-1-yl)methanone]: the inhibition at 1.11 µM was determined as 81%.
